Measured values taken from PMC5341572, “Self-Assembly and Anti-Amyloid Cytotoxicity Activity of Amyloid beta Peptide Derivatives” (Scientific Reports, 2017).
“And” between values parts separate entries of the source, which are not always exact repeats. Equal values may be shown once. “Also recorded” adds a separate entry of the source.

Columns and labels:
Aβ(1–42) = target: T1, Aβ(1–42) (Homo sapiens, UniProt P05067); test: CD spectroscopy of Aβ(1–42) secondary structure on addition of peptide; details: Aβ(1–42):peptide molar ratio 1:1.2 for peptide 1 and 1:1.6 for peptide 2; Tris buffer pH 7.4
T1 construct: purchased American Peptide Inc. (Sunnyvale, USA)
T1 sequence (P05067 672-713): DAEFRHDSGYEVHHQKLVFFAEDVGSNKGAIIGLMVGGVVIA
Description: HFIP was then evaporated under a slow stream of N2.
CD spectra were recorded using a Chirascan spectropolarimeter (Applied Photophysics, UK). Peptide solutions were placed in a cover slip cuvette (1 × 10^−2 or 0.1 mm thick), spectra presented being with absorbance A < 2 at any measured point with a 0.5 nm step, 1 nm bandwidth, and 1 s collection time per step. The CD signal from the background was subtracted from the CD data of the sample solutions. […] CD experiments were performed using a Quartz cuvette with 1mm path length.

[1] = ANS fluorescence assay for critical aggregation concentration (cac); format: physicochemical; details: discontinuity in concentration-dependent ANS fluorescence; 74 μM ANS solution, λex 356 nm, spectra 400-670 nm
Description: 8-anilo-1-naphthalenesulfonic acid (ANS) and thioflavin T (ThT) fluorescence were used to locate the critical aggregation concentration (cac). Spectra were recorded with a Varian Cary Eclipse fluorescence spectrometer with samples in 4 mm inner width quartz cuvettes. The ANS fluorophore is a probe sensitive to the hydrophobicity of its surrounding environment, making it suitable to determine the cac. ANS assays were performed measuring spectra from 400 to 670 nm (λex = 356 nm), using a 74 μM ANS solution to solubilize the peptide. ThT fluorescence depends on the formation of amyloid-like structures[36][37] (β-sheet fibrils) and is used for amyloid fibril-forming peptides. For the ThT assay, the spectra were recorded from 460 to 600 nm using an excitation wavelength of λex = 440 nm, and the peptide was dissolved in a 5.0 × 10^−3 wt % ThT solution.

[2] = test system: primary rat cortical neurons; test: MTS neurotoxicity assay with primary neurons; format: cell-based; details: final Aβ 20 μM, 20 h
Description: Neuronal cultures were obtained from E16 rat embryos as described[63] with modifications. Briefly, brain cortical tissue was dissected free of meninges and suspended in 0.5 ml of Ca^2+ and Mg^2+ –free Hank’s balanced solution (Gibco). Tissue was then incubated with 4 ml of 0.25% trypsin in a 37 °C water bath for 20 min with agitation. After digestion, tissue was centrifuged at 1000 rpm for 2 min, suspended in DMEM (Gibco) containing 10% fetal calf serum (FCS) (Internegocios) and incubated at 37 °C for 10 min. The pellet was washed with DMEM 10% FCS and allowed to rest for 10 min. Medium was replaced with 1 ml Neurobasal medium (Gibco) and triturated with a 10 ml plastic pipette. […]
Aliquots were dried under a gentle stream of N2 and re-suspended in 20 mM Tris-HCl, pH 7.4, containing 50 mM NaCl (working buffer). […] Cell viability was measured using a (3-(4, 5-dimethylthiazol-2-yl)-5-(3-carboxymethoxyphenyl)-2-(4-sulfophenyl)-2H-tetrazolium) (MTS) reduction assay. Twenty μl of MTS solution containing phenazine ethyl sulfate were added to wells, incubated for 1 h and absorbance was measured at 490 nm. Viability was expressed as the O.D. relative to neurons treated with working buffer alone. […] Data of three MTS assays were analyzed by one-way ANOVA and Bonferroni post hoc test with Graph Pad Prism v. […]

[3] = ESI mass spectrometry of peptide oligomerisation with and without HFIP; format: physicochemical
Description: Samples were diluted to 0.029 wt % peptide in both H2O and HFIP:H2O (1:9; v/v). ESI mass spectra were acquired in positive ion mode on a Synapt G2-Si instrument (Waters Corporation, Wilmslow, UK). The employed Z-spray ESI source (Waters Corporation, Wilmslow, UK) was operated at 1.8 kV and the ESI sample solutions were infused at 10 μL/min using a KD Scientific syringe pump (KD Scientific Inc., Holliston, USA). The desolvation and source temperature were 150 °C and 80 °C, respectively, and the cone voltage was set to 40 V. ESI mass spectra were acquired in triplicate in sensitivity mode with the exception of higher resolution mass spectra, which were acquired once in resolution mode with ion mobility separation enabled. For the latter, wave velocity and wave height were set to 650 m/s and 40 V, respectively, and the helium and nitrogen flow rates were 180 and 90 mL/min, respectively. The acquired data was converted to mzML format using the msconvert tool from the ProteoWizard software package. In-house developed software based on the pymzML software library[62] was used to extract the integrated isotopomer signal intensities of interest from the converted data files. The integrated ion signal intensities of the monomer (SM) and all oligomers (SO) were summed for each acquired spectrum to determine the total ion signal intensity of the analysed peptide species (ST):
The relative extent of oligomerisation (EO) was determined by dividing the integrated ion signal intensities of the oligomers (SO) by the total ion signal intensity of the analysed peptide (ST): […]

[4] = test system: SH-SY5Y neuroblastoma cells; test: MTS neurotoxicity assay with SH-SY5Y cells; format: cell-based; details: 24 h
Description: SH-SY5Y neuroblastoma cells were maintained in a 1:1 ratio of Ham’s F12 and Dulbecco’s Modified Eagle Medium with 10% foetal calf serum and penicillin/streptomycin at 37 °C and 5% CO2. At 85–95% confluence the cells were detached from their growth substrate using trypsin and the growth medium was removed following centrifugation of the cells at 500xg for five minutes. The cells were re-suspended in a serum-free medium (Optimem with penicillin/streptomycin) and distributed at 20,000 cells per well in a 96-well plate then incubated at 37 °C, 5% CO2 for a further 24 hours. […] Cells were incubated for a further 24 hours as above and then assayed for cell survival using an MTS based assay (CellTiter 96 AQueous One Solution Cell Proliferation Assay from Promega).

[5] = peptide to Aβ(1–42) ratio 1:2 (2.5 μM peptide, 5 μM Aβ)
[6] = peptide to Aβ(1–42) ratio 1:5 (1 μM peptide, 5 μM Aβ)
[7] = peptide to Aβ(1–42) ratio 1:20 (0.25 μM peptide, 5 μM Aβ)

CC(C)C[C@H](NC(=O)[C@@H](N)CCCCN)C(=O)N[C@H](C(=O)N[C@@H](Cc1ccccc1)C(=O)N[C@@H](Cc1ccccc1)C(N)=O)C(C)C [peptide 1, NH2-KLVFF-CONH2]
β-sheet minimum (216 nm) in CD spectrum of Aβ(1–42) upon addition of peptide (Aβ(1–42)): significantly reduced
critical aggregation concentration (cac), ANS assay (hydrophobic collapse) [1]: 1.00 ± 5 × 10^−2 wt% and ~ 1 wt%
effect on viability of Aβ(1–42)-treated neurons ([2]; Aβ:peptide 1:1 (equimolarity), co-incubated 72 h with 100 μM Aβ(1–42)): no effect
improvement of viability of Aβ(1–42)-treated neurons ([2]; Aβ:peptide molar ratio 1:1.5, co-incubated 72 h, p < 0.05): ~ 70%
aggregation state n of self-assemblies (oligomers) seen by ESI MS ([3]; 0.029 wt% peptide): ≤ 7
relative extent of oligomerisation (Eo)H2O ([3]; 0.029 wt% peptide in H2O, positive-ion ESI MS, oligomer signal / total peptide signal, spectra in triplicate): 0.040 ± 0.002
relative extent of oligomerisation (Eo)HFIP ([3]; 0.029 wt% peptide in HFIP:H2O (1:9 v/v), positive-ion ESI MS, oligomer signal / total peptide signal, spectra in triplicate): 0.046 ± 0.002
effect on Aβ(1–42) cytotoxicity, in words [4, 5]: block the cytotoxic effect
effect on Aβ(1–42) cytotoxicity, in words [4, 6]: not very effective; also recorded: no protective effect
effect on Aβ(1–42) cytotoxicity, in words [4, 7]: not very effective; also recorded: no protective effect

CC(C)C[C@H](NC(=O)[C@@H](N)CCCCNC(=O)OC(C)(C)C)C(=O)N[C@H](C(=O)N[C@@H](Cc1ccccc1)C(=O)N[C@@H](Cc1ccccc1)C(N)=O)C(C)C [peptide 2, NH2-K(Boc)LVFF-CONH2]
effect of peptide alone on cells, in words ([4]; 2.5 μM peptide in the absence of Aβ(1–42)): negative effect
effect on Aβ(1–42) cytotoxicity, in words [4, 5]: block the cytotoxic effect
effect on Aβ(1–42) cytotoxicity, in words ([4]; peptide to Aβ(1–42) ratio 1:2 (2.5 μM peptide, 5 μM Aβ), listed as Peptide 2): rescues the cells
effect on Aβ(1–42) cytotoxicity, in words [4, 6]: positive effect
effect on Aβ(1–42) cytotoxicity, in words [4, 7]: positive effect
